In patent publication US7524840B2, “7,8-disubstituted pyrazolobenzodiazepines” (Hoffmann-La Roche Inc., priority 2004, dated 2009) one finds IC50 and IC90 data, which are given here for 3 molecules.

In one assay the target is T1, Cyclin E/CDK2 (Homo sapiens, UniProt P24941).
T1 construct: made in house; host or cells: insect cells
Nature of the assay: CDK2 Flash Plate Assay (Rb phosphorylation, 33P-ATP). Type of assay: biochemical. As to the method: To determine inhibition of CDK2 activity, purified recombinant retinoblastoma (Rb) protein was coated on 96 well FlashPlates (New England Nuclear, Boston, Mass.). […] Recombinant active human Cyclin E/CDK2 complexes were partially purified from extracts of insect cells. […] Plates were incubated for 25 minutes at room temperature with shaking, then washed and counted in the Topcount scintillation counter (Packard Instrument Co., Downers Grove, Ill.). Dilutions of test compounds were tested in duplicate in each assay. The percent inhibition of Rb phosphorylation, which is a measure of the inhibition of CDK2 activity, was determined according to the following formula:
[formula] where “test compound” refers to the average counts per minute of the test duplicates, “nonspecific” refers to the average counts per minute when no Cyclin E/CDK2 was added, and “total” refers to the average counts per minute when no compound was added.

The next assay has as its system H460a. In words: H460a cell-based MTT proliferation assay. Conditions: 120 h, 5 days post addition of test compound, read-out: Antiproliferative Activity H460a Assay IC90. As to the method: The H460a cell line was purchased from (ATCC; Rockville, Md.) and was grown in the medium recommended by ATCC. For analysis of the effect of the test compounds on growth of these cells, the cells were plated at 150 cells per well in a 96-well tissue culture plate, and were incubated overnight at 37° C. with 5% CO2. The next day, the test compounds were dissolved in 100% dimethyl sulfoxide (DMSO) to yield a 10 mM stock solution. Each compound was diluted with sterile medium to 1 mM in a sufficient quantity to yield a final concentration of 120 μM. The compounds were then serially diluted in medium with 1.2% DMSO. One-fourth final volume of the diluted compounds was transferred to 96 well plates. Test compounds were assayed in duplicate. […] The plates were returned to the incubator, and 5 days post addition of test compound, were analyzed as described below. […] Absorbencies were read in a microtiter plate reader (Molecular Dynamics) at a wavelength of 570 nm with a 650 nm reference. Percent inhibition was calculated by subtracting the absorbance of the blank (no cell) wells from all wells, then subtracting the division of the average absorbance of each test duplicate by the average of the controls from 1.00. Inhibitory concentrations (IC50) were determined from the linear regression of a plot of the logarithm of the concentration versus the percent inhibition.
On the technique in general: Formazan colour is commonly taken as a measure of viable cells.

The next assay has as its system FGF-stimulated HUVEC. In words: FGF-stimulated HUVEC proliferation assay (BrdU). To be noted: Homo sapiens, BrdU labeling, FGF 5 ng per mL, 24 hour exposure, read-out: Antiproliferative Activity FGF-stimulated HUVEC Assay IC50. The class given is cell-based. As to the method: The antiproliferative activity of test compounds of this invention in cell-based assays was evaluated by BrdU assay using the BrdU kit (Roche Biochemicals 1-647-229). Human umbilical vein endothelial cells (HUVEC, Clonetics CC-2519) were cultured in EGM-2 (Clonetics CC-3162) medium and seeded at 10000 cells per well in a volume of 200 μL of EGM-2 (Clonetics CC-3162) media in a 96-well flat bottom plates (Costar 3595) overnight. After 24 hours of growth at 37° C. with 5% CO2, the incubation media was removed slowly by aspiration, and the content of each well was washed with 300 μL pre-warmed EBM-2 (Clonetics CC-3156) containing 50 μg per mL of gentamycin and 50 ng per mL of amphotercin-B (Clonetics CC-4083). Subsequently, the remaining media was again aspirated and replaced with 160 μL per well of serum starvation media (EBM-2 supplemented with 1% heat inactivated FBS (Clonetics CC-4102), 50 μg per mL gentamycin and 50 ng per mL of amphotercin-B (Clonetics CC-4083), 10 units per mL of Wyeth-Ayerst heparin (NDC0641-0391-25), and 2 mM L-glutamine (GIBCO 25030-081). After serum starving the cells for 24 hours, 20 μL of test compound at 10× test concentration in serum starvation medium with 2.5% DMSO was added to the appropriate wells. The control wells contained 20 μL of serum starvation medium with 2.5% DMSO. Plates were returned to the incubator for 2 hours. After pre-incubating the cells with the test compounds for 2 hours, 20 μL of growth factors at 10X assay concentration diluted in serum starvation media, FGF at 50 ng per mL, or VEGF (R&D systems 293-VE) at 200 ng per mL were added. The final concentration of FGF in the assay was 5 ng per mL and the final concentration of VEGF in the assays was 20 ng per mL. The growth factor free control wells had 20 μL per well of serum starvation media with the same amount of BSA as the wells with growth factors. The plates were returned to the incubator for an additional 22 hours.
After 24 hour exposure to the test compounds, the cells were labeled with BrdU (Roche Biochemicals 1-647-229), by adding 20 μL per well of BrdU labeling reagent that has been diluted (1:100) in serum starvation medium. The plates were then returned to the incubator for 4 hours. The labeling medium was removed by draining the medium onto paper towels. […] The plates were read at 450 nm with reference wavelength of 650 nm. The percent inhibition for each test compound was calculated by subtracting the absorbency of the blank (no cells) wells from all wells, then subtracting the division of the average absorbency of each test duplicate by the average of the controls from 1. […] The IC50 is determined from the linear regression of a plot of the logarithm of the concentration versus percent inhibition.

The subject of a further assay is HCT-116. In words: HCT-116 (colon) cell-based MTT proliferation assay. Conditions: Homo sapiens, HCT-116, 96 h, 4 days post addition of test compound, read-out: Antiproliferative Activity HCT 116 (colon) Assay IC50. Here is the method:
The estrogen receptor negative epithelial breast carcinoma line (MDA-MB-435) was purchased from American Type Cell Culture Collection (ATCC; Rockville, Md.) and was grown in the medium recommended by ATCC. For analysis of the effect of the test compounds on growth of these cells, the cells were plated at 2000 cells per well in a 96-well tissue culture plate, and were incubated overnight at 37° C. with 5% CO2. The next day, the test compounds were dissolved in 100% dimethyl sulfoxide (DMSO) to yield a 10 mM stock solution. Each compound was diluted with sterile medium to 1 mM in a sufficient quantity to yield a final concentration of 120 μM. The compounds were then serially diluted in medium with 1.2% DMSO. One-fourth final volume of the diluted compounds was transferred to 96 well plates. Test compounds were assayed in duplicate. DMSO was added to a row of “control cells” such that the final concentration of DMSO in each well was 0.3%. Wells to which no cells were added served as the “blank.” Wells to which no inhibitor was added served as “no inhibitor control”. The plates were returned to the incubator, and 5 days post addition of test compound, were analyzed as described below.
3-(4,5-Dimethylthiazole-2-yl)-2,5-diphenyl-2H-tetrazolium bromide (thiazolyl blue; MTT) was added to each well to yield a final concentration of 1 mg/mL. The plates were then incubated at 37° C. for 3 hours. The plates were centrifuged at 1000 rpm for 5 minutes prior to aspiration of the MTT-containing medium. The MTT-containing medium was then removed and 100 μL 100% ethanol was added to each well to dissolve the resulting formazan metabolite. To ensure complete dissolution, plates were shaken for 15 minutes at room temperature. Absorbencies were read in a microtiter plate reader (Molecular Dynamics) at a wavelength of 570 nm with a 650 nm reference. Percent inhibition was calculated by subtracting the absorbance of the blank (no cell) wells from all wells, then subtracting the division of the average absorbance of each test duplicate by the average of the controls from 1.00. Inhibitory concentrations (IC50) were determined from the linear regression of a plot of the logarithm of the concentration versus the percent inhibition.
The colon adenocarcinoma line SW480 and the colon carcinoma line HCT-116 also were obtained from the ATCC and were tested according to the same protocol provided above for MDA-MB-435 cell based assay with the following modifications. Cell line SW480 was plated at 1000 cells per well and analyzed at 6 days post addition of the test compound. Cell line HCT-116 was plated at 1000 cells per well and analyzed at 4 days post addition of test compound.

Another assay has as its system SW480. In words: SW480 (colon) cell-based MTT proliferation assay. Conditions: Homo sapiens, SW480, 144 h, 6 days post addition of the test compound, read-out: IC50 for inhibition in the SW480 (colon) based assay. As to the method: (§1) The estrogen receptor negative epithelial breast carcinoma line (MDA-MB-435) was purchased from American Type Cell Culture Collection (ATCC; Rockville, Md.) and was grown in the medium recommended by ATCC. For analysis of the effect of the test compounds on growth of these cells, the cells were plated at 2000 cells per well in a 96-well tissue culture plate, and were incubated overnight at 37° C. with 5% CO2. The next day, the test compounds were dissolved in 100% dimethyl sulfoxide (DMSO) to yield a 10 mM stock solution. Each compound was diluted with sterile medium to 1 mM in a sufficient quantity to yield a final concentration of 120 μM. The compounds were then serially diluted in medium with 1.2% DMSO. […] The plates were returned to the incubator, and 5 days post addition of test compound, were analyzed as described below.
(§2) 3-(4,5-Dimethylthiazole-2-yl)-2,5-diphenyl-2H-tetrazolium bromide (thiazolyl blue; MTT) was added to each well to yield a final concentration of 1 mg/mL. […] Absorbencies were read in a microtiter plate reader (Molecular Dynamics) at a wavelength of 570 nm with a 650 nm reference. Percent inhibition was calculated by subtracting the absorbance of the blank (no cell) wells from all wells, then subtracting the division of the average absorbance of each test duplicate by the average of the controls from 1.00. […]

A further assay concerns MDA-MB-435. Nature of the assay: MDA-MB-435 cell-based MTT proliferation assay. To be noted: Homo sapiens, MDA-MB-435, 120 h, 5 days post addition of test compound, read-out: IC50 for inhibition in the MDA-MB-435 cell-based assay. Here is the method: as §1, §2

For the molecule `COc1cc2c(cc1C#N)C(c1ccccc1Cl)=Nc1c(n[nH]c1C)N2` [IVb, 5-(2-chlorophenyl)-7-cyano-1,2-dihydro-8-methoxy-3-methyl-pyrazolo[3,4-b][1,4]benzodiazepine], the half-maximal inhibitory concentration (IC50) (as a rule, the concentration at which inhibition is half-maximal) worked out at 0.184 µM on Cyclin E/CDK2 and 0.005 µM with FGF-stimulated HUVEC. Also, the concentration for an effect of 90% (IC90) (usually the concentration needed for an effect of 90%) with H460a came to 0.118 µM.

With `COCCOc1cc2c(cc1F)C(c1ccccc1Cl)=Nc1c(n[nH]c1C)N2` [IVf, 5-(2-chlorophenyl)-1,2-dihydro-7-fluoro-8-methoxyethoxy-3-methyl-pyrazolo[3,4-b][1,4]benzodiazepine], the values for the IC50 in the assay with HCT-116 and against Cyclin E/CDK2 were 0.498 µM and 0.395 µM, respectively.

In the case of `Cc1cc2c(cc1C)C(c1ccccc1Cl)=NCC(=O)N2` [Iw, 5-(2-chlorophenyl)-1,3-dihydro-7,8-dimethyl-2H-1,4-benzodiazepin-2-one], the IC50 in the assay on SW480 and in the assay with MDA-MB-435 was 0.95 µM in each case.
